Measurements as given in US4025555A, “Aromatic amidines as antiviral agents in animals” (Pfizer Inc., priority 1976, dated 1977).
Where “and” joins values, the source holds several entries; their conditions need not be identical. Equal entries are not always repeated.

Each compound was assayed on circulating interferon (assay: not given). Details: mouse, in vivo, ip.
Design: species or system female Swiss mice
CCCCCCCCCCCCCCCCN(CCCCCCCCCCCCCCCC)Cc1cccc(C(=N)Nc2ccc(O)c(C)c2)c1 [Example 30] was tested, and the “Plasma Interferon Levels” value was 66 units/ml. and 87 units/ml. and 61 units/ml. and 64 units/ml.

What follows are compounds tested on encephalomyocarditis (EMC) virus (assay: Antiviral activity in mice challenged with lethal dose of encephalomyocarditis (EMC) virus (survival, relative survival, ED50)). Details: Mus musculus, ip, 240 h; as mg. dihydrochloride salt; i.p. 18-24 h before EMC virus challenge; day 10; read-out: ED50.
Assay type: in vivo, female albino mice
Method: The antiviral activity of the compounds of formula I is determined by the following procedure. The test compound is administered to mice by the intraperitoneal route eighteen to twenty-four hours prior to challenging them with a lethal dose of encephalomyocarditis (EMC) virus. The survival rate is determined ten days after challenge and an ED50 [dosage level (mg of compound/kg body weight) required to obtain a fifty percent survival rate] calculated. The procedure in which the drug is given eighteen to twenty-four hours before, and at a distinctly different site from, virus injection is designed to eliminate local effects between drug and virus and identify only those compounds which produce a systemic antiviral response.
Three groups of ten female albino mice (20-25 g. body weight) were given single 0.5 ml. intraperitoneal injections containing dosage levels of 1.5, 5, and 15 mg. of the named compound/kg. body weight, respectively. A fourth control group was given no such injection. Eighteen to twenty-four hours later all four groups were challenged with a 0.2 ml. subcutaneous injection containing 20-30 times the LD50, the dosage level causing a 50% death rate in ten days, of encephalomyocarditis (EMC) virus. The following survival data were recorded for the following ten days:
Antiviral activity is expressed as the relative survival (Sr) in experimental groups compared to the controls on the tenth day after challenge. Sr is defined by the formula [formula] wherein Sr = relative survival […]
Sx = percent survival after ten days in experimental group xi = number of survivors on the ith day in experimental group ei = number of survivors on the ith day in control group
The ED50 [dosage level (mg. of compound/kg. body weight) required to obtain a fifty percent survival rate] is determined graphically by plotting Sr (ordinate) vs. 1n dosage level (abscissa) and then fitting the points with a line of predetermined slope by least squares. The dosage level at which this fitted line has an ordinate of 50 is equivalent to the ED50.
In like manner to that described in Example 113 the antiviral activity was determined for the compounds listed below.
Compound CCCCCCCCCCCCCCCCN(CCCCCCCCCCCCCCCC)Cc1cccc(C(=N)Nc2ccc(C)cc2)c1 [Example 9] has an ED50 of 7.7 mg/kg. CCCCCCCCCCCCCCCCN(CCCCCCCCCCCCCCCC)Cc1cccc(C(=N)NCC)c1 [Example 26] showed an ED50 of 7.6 mg/kg. Compound CCCCCCCCCCCCCCCCN(CCCCCCCCCCCCCCCC)Cc1cccc(C(=N)Nc2cccc([N+](=O)[O-])c2)c1 [Example 13] has an ED50 of 21.6 mg/kg. CCCCCCCCCCCCCCCCN(CCCCCCCCCCCCCCCC)Cc1cccc(C(=N)Nc2ccc(S(N)(=O)=O)cc2)c1 [Example 16] showed an ED50 of 7 mg/kg. Compound CCCCCCCCCCCCCCCCN(CCCCCCCCCCCCCCCC)Cc1cccc(C(=N)NC)c1 [Example 27, m-[N,N-di(n-hexadecyl)aminomethyl]-N-methyl-benzamidine] has an ED50 of 5.7 mg/kg. Work on CCCCCCCCCCCCCCCCN(CCCCCCCCCCCCCCCC)Cc1cccc(C(=N)Nc2ccc([N+](C)(C)C)cc2)c1 [Example 32] yielded an ED50 of 7.4 mg/kg. CCCCCCCCCCCCCCCCN(CCCCCCCCCCCCCCCC)Cc1cccc(C(=N)NC(C)C)c1 [Example 25, m-[N,N-di(n-hexadecyl)aminomethyl]-N-(2-propyl)-benzamidine] gave an ED50 of 2.8 mg/kg. CCCCCCCCCCCCCCCCN(CCCCCCCCCCCCCCCC)Cc1cccc(C(=N)Nc2ccc(OCC)cc2)c1 [Example 18] gave an ED50 of 17.9 mg/kg. CCCCCCCCCCCCCCCCN(CCCCCCCCCCCCCCCC)Cc1cccc(C(=N)Nc2nc(C)cs2)c1 [Example 21] showed an ED50 of 47.5 mg/kg. CCCCCCCCCCCCCCCCN(CCCCCCCCCCCCCCCC)Cc1cccc(C(=N)Nc2ccc(OC)cc2)c1 [Example 6, m-[N,N-Di(n-hexadecyl)aminomethyl]-N-(p-methoxyphenyl)-benzamidine] was tested, and the ED50 was 5.3 mg/kg. Work on CCCCCCCCCCCCCCCCN(CCCCCCCCCCCCCCCC)Cc1cccc(C(=N)Nc2ccc(Cl)cc2)c1 [Example 8] yielded an ED50 of 16 mg/kg. Work on CCCCCCCCCCCCCCCCN(CCCCCCCCCCCCCCCC)Cc1cccc(C(=N)NCc2ccccc2)c1 [Example 22] yielded an ED50 of 7.8 mg/kg. With CCCCCCCCCCCCCCCCN(CCCCCCCCCCCCCCCC)Cc1cccc(C(=N)NCC2CC2)c1 [Example 29] the ED50 was 6.9 mg/kg. For CCCCCCCCCCCCCCCCN(CCCCCCCCCCCCCCCC)Cc1cccc(C(=N)NN(C)C)c1 [Example 23, m-[N,N-di(n-hexadecyl)aminomethyl]-N-dimethylamino-benzamidine], the ED50 was 5 mg/kg. With CCCCCCCCCCCCCCCCN(CCCCCCCCCCCCCCCC)Cc1cccc(C(=N)Nc2ccc(F)cc2)c1 [Example 15] the ED50 was 38 mg/kg. With CCCCCCCCCCCCCCCCN(CCCCCCCCCCCCCCCC)Cc1cccc(C(=N)Nc2ncccn2)c1 [Example 17] the ED50 was 12.9 mg/kg. In the case of CCCCCCCCCCCCCCCCN(CCCCCCCCCCCCCCCC)Cc1cccc(C(=N)NCCc2cnc[nH]2)c1 [Example 31], the ED50 is reported as 11.7 mg/kg. CCCCCCCCCCCCCCCCN(CCCCCCCCCCCCCCCC)Cc1cccc(C(=N)Nc2ccc(N(C)C)cc2)c1 [Example 14] showed an ED50 of 8 mg/kg. CCCCCCCCCCCCCCCCN(CCCCCCCCCCCCCCCC)Cc1cccc(C(=N)NCC(F)(F)F)c1 [Example 28, m-[N,N-Di(n-hexadecyl)aminomethyl]-N-(2,2,2-trifluoroethyl)-benzamidine] was tested, and the ED50 was 3.8 mg/kg. CCCCCCCCCCCCCCCCN(CCCCCCCCCCCCCCCC)Cc1cccc(C(=N)N)c1 [Example 2, m-[N,N-Di-(n-hexadecyl)aminomethyl]-benzamidine] gave an ED50 of 4.7 mg/kg. CCCCCCCCCCCCCCCCN(CCCCCCCCCCCCCCCC)Cc1cccc(C(=N)Nc2ccc(O)cc2O)c1 [Example 33] gave an ED50 of 37.2 mg/kg. CCCCCCCCCCCCCCCCN(CCCCCCCCCCCCCCCC)Cc1cccc(C(=N)Nc2ccc(O)cc2)c1 [Example 12] was tested, and the ED50 was 4.9 mg/kg. For CCCCCCCCCCCCCCCCN(CCCCCCCCCCCCCCCC)Cc1cccc(C(=N)NC2CCCC2)c1 [Example 20, m-[N,N-Di(n-hexadecyl)aminomethyl]-N-cyclopentyl-benzamidine], the ED50 was 27.3 mg/kg. CCCCCCCCCCCCCCCCN(CCCCCCCCCCCCCCCC)Cc1cccc(C(=N)NC(=O)C(=O)O)c1 [Example 4, m-[N,N-Di(n-hexadecyl)aminomethyl]-N-oxoacetic acid-benzamidine] was tested, and the ED50 was 9.9 mg/kg. For CCCCCCCCCCCCCCCCN(CCCCCCCCCCCCCCCC)Cc1cccc(C(=N)Nc2ccc(S(C)(=O)=O)cc2)c1 [Example 19], the ED50 was 8.9 mg/kg. CCCCCCCCCCCCCCCCN(CCCCCCCCCCCCCCCC)Cc1cccc(C(=N)Nc2ccccn2)c1 [Example 10] was tested, and the ED50 was 49.3 mg/kg. For CCCCCCCCCCCCCCCCN(CCCCCCCCCCCCCCCC)Cc1cccc(C(=N)Nc2ccccc2)c1 [Example 7], the ED50 was 12.3 mg/kg. In the case of CCCCCCCCCCCCCCCCN(CCCCCCCCCCCCCCCC)Cc1cccc(C(=N)Nc2ccc(O)c(C)c2)c1 [Example 30], the ED50 is reported as 7.7 mg/kg. For CCCCCCCCCCCCCCCCN(CCCCCCCCCCCCCCCC)Cc1cccc(C(=N)Nc2ccc(Cl)cc2Cl)c1 [Example 11], the ED50 was 35.7 mg/kg.

Same assay, conditions: Mus musculus, ip, 240 h; as mg. free base (Example 115); i.p. 18-24 h before EMC virus challenge; day 10; read-out: ED50
CCCCCCCCCCCCCCCCN(CCCCCCCCCCCCCCCC)Cc1cccc(C(=N)NCCCS(=O)(=O)O)c1 [Example 3, m-[N,N-Di(n-hexadecyl)aminomethyl]-N-(n-propane)sulfonic acid-benzamidine] gave an ED50 of 8 mg/kg.

Same assay, conditions: Mus musculus, ip, 240 h; i.p. 18-24 h before s.c. EMC virus challenge; graphical, day 10; read-out: ED50 (dosage level required to obtain a fifty percent survival rate)
C=CCNC(=N)c1cccc(CN(CCCCCCCCCCCCCCCC)CCCCCCCCCCCCCCCC)c1 [Example 24, m-[N,N-di(n-hexadecyl)aminomethyl]-N-allyl-benzamidine] was tested, and the ED50 was 4.7 mg/kg.

Same assay, conditions: mouse, in vivo, ip
C=CCNC(=N)c1cccc(CN(CCCCCCCCCCCCCCCC)CCCCCCCCCCCCCCCC)c1 [Example 24, m-[N,N-di(n-hexadecyl)aminomethyl]-N-allyl-benzamidine] was tested, and the “Number of Survivors on Day 0” value was 10, the “Number of Survivors on Day 1” value was 10 and the “Number of Survivors on Day 2” value was 10. For the same compound, the “Number of Survivors on Day 3” value was 10, the “Number of Survivors on Day 4” value was 9 and 10 and the “Number of Survivors on Day 5” value was 8 and 6 and 5. The “Number of Survivors on Day 6” value was 8 and 6 and 4.
